Source: patent US20140099634A1, “USE OF PRE-MRNA SPLICING IN PLATELET CELLS FOR THE DIAGNOSIS OF DISEASE” (priority 2007, published 2014)

Key:
[1] = tested on: TF pre-mRNA splicing in platelets; experiment: TF pre-mRNA splicing in platelets (PCR); type: cell-based, human; conditions: for pre-mRNA splicing events in platelets: commonly used medications in patients
Source text: TF pre-mRNA splicing may be measured by any method known in the art, including, but not limited to, PCR using primers that target sequences in exon four (5′-[…]-3′; SEQ ID NO: 1) and five (5′-[…]-3′; SEQ ID NO: 2), and thus span intron four^3. Likewise, detection of full-length mature mRNA for human TF (mHTF) in platelets may be measured using any method known in the art, including, but not limited to, using primers targeting sequences in exon one (5′-[…]-3′; SEQ ID NO: 3) and exon six (5′-[…]-3′; SEQ ID NO: 4). In light of the disclosure herein, a person of ordinary skill in the art may select and use alternative primers based on the sequence of the gene/RNA^54. Primer design may be aided by the use of available computer programs, such as OLIGO™ (available from Hitachi Software), Primer3 (available online from the University of Massachusetts Medical School), GeneFisher (available online from the Universitat Bielefeld, Germany), or OligoAnalyzer (available from Integrated DNA Technologies, Inc.).
Platelets were isolated from each patient within 48 hours of admission to the ICU and TF mRNA expression patterns were characterized in each patient. In addition, clinical data for each patient including age and gender, admission diagnoses, APACHE II score, laboratory and microbiology results, and mortality were also collected. When feasible, platelets were also isolated from blood that was obtained on days three, five, and ten. The blood samples were processed immediately. Pre-mRNA splicing was also evaluated in platelets isolated from healthy volunteers (age 18-50) that were not taking medications. Platelets isolated from patients with sepsis and routine healthy control donors were processed in parallel.
Platelets from healthy subjects were left quiescent or activated with α-toxin (10 ng/ml; List Biological Laboratories Inc.) or lipopolysaccharide (LPS; 100 ng/ml; Sigma), toxins produced by gram-positive Staph. aureus and gram-negative E. Coli, respectively. Platelets were kept quiescent or activated in suspension with MRSA or E. coli at a bacteria to platelet ratio of 1:10. The bacteria were obtained from blood cultures from sepsis patients by ARUP, a national reference laboratory under standard conditions. For these studies, the bacteria were swiped from the culture plate, re-suspended, and the desired concentration was adjusted against a standard solution using a colorimeter (Vitek Colorimeter, bioMéreux, Inc.).

[2] = tested on: PKA; conditions: concentrations up to 1 μM; cited from earlier work
[3] = tested on: platelets; conditions: cited from earlier work
[4] = target: SRPK1 (Homo sapiens, UniProt Q96SB4); conditions: concentrations up to 1 μM; cited from earlier work
[5] = target: SRPK2 (Homo sapiens, UniProt P78362); conditions: concentrations up to 1 μM; cited from earlier work
[6] = tested on: platelets; experiment: Plasma clot formation by activated platelets or their membranes; type: cell-based, human; conditions: platelets activated with thrombin for 2 hours, FIG. 5
[7] = tested on: PKC; conditions: concentrations up to 1 μM; cited from earlier work

Sequence of SRPK1 (Q96SB4 whole entry, species assumed): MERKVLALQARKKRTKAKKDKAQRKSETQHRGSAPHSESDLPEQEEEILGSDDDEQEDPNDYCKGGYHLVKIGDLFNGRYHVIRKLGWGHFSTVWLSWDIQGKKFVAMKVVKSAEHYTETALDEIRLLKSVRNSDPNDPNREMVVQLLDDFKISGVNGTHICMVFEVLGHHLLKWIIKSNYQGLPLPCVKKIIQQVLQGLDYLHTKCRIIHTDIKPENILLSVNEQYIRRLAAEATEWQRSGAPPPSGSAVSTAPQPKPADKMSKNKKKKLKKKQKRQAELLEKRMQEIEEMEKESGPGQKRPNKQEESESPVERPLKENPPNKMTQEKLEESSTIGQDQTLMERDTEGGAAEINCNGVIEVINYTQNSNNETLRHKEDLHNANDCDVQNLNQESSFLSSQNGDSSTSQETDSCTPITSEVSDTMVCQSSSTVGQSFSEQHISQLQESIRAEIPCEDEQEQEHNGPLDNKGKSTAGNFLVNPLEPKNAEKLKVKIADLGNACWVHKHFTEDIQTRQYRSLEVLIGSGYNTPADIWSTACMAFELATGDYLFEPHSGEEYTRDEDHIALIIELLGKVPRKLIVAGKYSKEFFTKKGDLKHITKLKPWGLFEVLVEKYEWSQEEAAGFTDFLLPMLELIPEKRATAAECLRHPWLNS
Sequence of SRPK2 (P78362 whole entry, species assumed): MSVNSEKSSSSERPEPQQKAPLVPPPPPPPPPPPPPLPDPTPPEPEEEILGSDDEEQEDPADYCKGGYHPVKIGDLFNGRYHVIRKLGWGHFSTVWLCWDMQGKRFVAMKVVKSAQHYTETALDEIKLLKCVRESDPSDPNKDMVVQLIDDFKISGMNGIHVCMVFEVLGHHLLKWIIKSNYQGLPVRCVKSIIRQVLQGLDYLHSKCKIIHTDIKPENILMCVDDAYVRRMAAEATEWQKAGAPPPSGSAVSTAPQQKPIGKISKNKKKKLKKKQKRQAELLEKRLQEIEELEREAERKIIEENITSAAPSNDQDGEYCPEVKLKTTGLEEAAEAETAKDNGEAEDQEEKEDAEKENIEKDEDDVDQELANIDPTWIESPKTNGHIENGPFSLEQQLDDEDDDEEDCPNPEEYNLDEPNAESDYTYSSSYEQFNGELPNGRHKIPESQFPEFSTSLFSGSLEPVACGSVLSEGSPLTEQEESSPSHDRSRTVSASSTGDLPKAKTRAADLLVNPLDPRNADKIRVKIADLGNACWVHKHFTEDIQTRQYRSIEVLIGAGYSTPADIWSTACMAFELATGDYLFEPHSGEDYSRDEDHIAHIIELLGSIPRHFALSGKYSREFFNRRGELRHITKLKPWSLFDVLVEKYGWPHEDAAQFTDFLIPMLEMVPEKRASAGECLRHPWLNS

Compound: CC(=O)Oc1ccccc1C(=O)O [Aspirin]
- pre-mRNA splicing events in platelets [1]: do not affect
- signal-dependent TF pre-mRNA splicing ([1]; platelets of elderly subject taking aspirin 325 mg daily, thrombin 0.05 U/ml for 1 hour, FIG. 2): does not block

Compound: CCN1/C(=C/C(C)=O)Sc2ccc(OC)cc21 [Tg003, (Z)-1-(3-Ethyl-5-methoxy-2,3-dihydrobenzothiazol-2-ylidene)propan-2-one]
- effect on PKA activity [2]: does not affect
- platelet adhesion, spreading, and aggregation [3]: does not alter
- effect on SRPK1 activity [4]: does not affect
- effect on SRPK2 activity [5]: does not affect
- plasma clot formation [6]: reduces clot formation
- pre-mRNA splicing ([1]; platelets activated with thrombin, FIG. 5): blocks pre-mRNA splicing
- effect on PKC activity [7]: does not affect

Compound: CC(=O)CC(c1ccccc1)c1c(O)c2ccccc2oc1=O (stereo not drawn) [warfarin]
- pre-mRNA splicing events in platelets [1]: do not affect

Compound: heparin
- TF pre-mRNA splicing ([1]; platelets of septic patients who received heparin to prevent VTE): does not block

Compound: lipopolysaccharide [LPS]
- induction of TF pre-mRNA splicing ([1]; platelets from healthy volunteers, 2 hours, FIGS. 11 and 12): induced TF pre-mRNA splicing
